{"source": "paper PMC8152971", "about": "“Valeriana rigida Ruiz & Pav. Root Extract: A New Source of Caffeoylquinic Acids with Antioxidant and Aldose Reductase Inhibitory Activities” (Foods, 2021)", "key": {"[1]": {"assay": "DPPH radical scavenging assay", "conditions": "Trolox equivalent antioxidant capacity, mean ± SD, n ≥ 3", "protocol": "The experiment was carried out as previously described. […] Thereafter, the absorbance was measured using a microplate reader (EL800, Bio-Tek Instruments, Winooski, VT, USA) at 570 nm."}, "[2]": {"assay": "ABTS radical scavenging assay", "conditions": "Trolox equivalent antioxidant capacity, mean ± SD, n ≥ 3", "protocol": "The experiment was conducted as previously described. In brief, 3.5 mM of potassium persulfate aqueous solution was used to prepare 0.2 mM of ABTS diammonium salt. The solution was diluted 10-fold using distilled water and allowed to produce ABTS radicals (ABTS^+) by keeping the solution in the dark for 14 h at room temperature. […] Equation (1) was used to calculate the ABTS^+ scavenging activity (%), where Acontrol is the absorbance of ABTS^+ solution free of samples, Asample is the absorbance of ABTS^+ solution incubated with a sample, Ablank1 is the absorbance of the test sample free of ABTS^+ solution, and Ablank2 is the absorbance of the diluted potassium persulfate solution."}, "[3]": {"assay": "Oxygen radical absorbance capacity (ORAC) assay", "conditions": "Trolox equivalent antioxidant capacity, mean ± SD, n ≥ 3", "protocol": "The oxygen radical absorbance capacity (ORAC) assay was performed as previously described. Briefly, 0. […] Next, 60 µL of AAPH (40 mM) was added to generate peroxyl radicals to initiate the reaction."}, "[4]": {"assay": "Hypochlorous acid (HOCl) scavenging assay", "protocol": "The HOCl scavenging assay was adapted from a previous study using 1,8-diaminonaphthalene as a fluorescence probe for hypochlorite. […] Next, the fluorescence intensity (λex = 360 ± 20 nm, λem = 460 ± 20 nm) was immediately measured using a microplate fluorescence reader (FLx800; Bio-Tek, Winooski, VT, USA). Trolox (final concentration 25–100 µg/mL) was used as a reference antioxidant."}, "[5]": {"biological_target": "T1, rat lens AR homogenate (aldose reductase) (Rattus norvegicus, UniProt P07943)", "T1 construct": "the lenses were removed from the eyes, ground in a mortar; from tissue; host or cells: lens of Sprague–Dawley rats", "assay": "AR inhibition assay", "format": "biochemical, Sprague–Dawley rats", "protocol": "The eyes of 10-week Sprague–Dawley rats (250–280 g) were removed and frozen at −70 °C before use. Thereafter, the lenses were removed from the eyes, ground in a mortar (precooled at −70 °C), and extracted using 0.1 M PBS of pH 6.2 (around 0.5 mL of buffer per two frozen rat lenses).\nThe AR inhibitory activities of the extract and the separated compounds were determined as described previously. […] Next, the reaction was initiated by adding 20 µL of the substrate (DL-glyceraldehyde dimmer, 25 mM in 0.1 M PBS of pH 7.0), and the values were further measured for 6 min at 340 nm (OD340) using an Epoch microplate spectrophotometer (BioTek Instruments, Winooski, VT, USA). […] The DMSO used for sample preparation was less than 0.4% (v/v) in the reaction system."}, "[6]": {"assay": "Partition coefficient (K upper/lower) in biphasic CCC solvent systems", "format": "physicochemical", "protocol": "The solvent system was screened via HPLC and evaluated according to the partition coefficient (K value) of the target compounds on the principle introduced by Ito [32]. Briefly, four solvent systems comprising EtOAc, n-BuOH, […] solution to 29 mM, and then the corresponding K values of the target compounds under acidic (Kacid) or basic (Kbase) conditions were determined, as previously described: each acidified or basified solvent system was partitioned to upper layer and lower layer. Thereafter, the extract (about 1–2 mg) was prepared in a 1.5 mL tube and dissolved by adding equal volumes (each 500 µL) of the upper layer and lower layers, which were mixed by a vortex mixer and centrifuged for about 20 s using a C1301 Mini Centrifuge (Labnet International, South Korea). Next, the upper and lower phase sample solutions were respectively pipetted (each 200 µL) into a new 1.5 mL-tube and evaporated by nitrogen gas. Each sample residue was redissolved using 200 µL of MeOH and subjected to HPLC analysis with an injection volume of 20 µL. The K value was calculated as K = Aupper/Alower, where Aupper and Alower are the HPLC peak areas of the target component in the upper and lower phases, respectively."}}, "note": "Marks after values point to notes of the source that are not given here."}
{"smiles": "O=C(/C=C/c1ccc(O)c(O)c1)O[C@@H]1[C@H](O)C[C@@](O)(C(=O)O)C[C@H]1OC(=O)/C=C/c1ccc(O)c(O)c1", "note": "[4,5-diCQA (6), 4,5-di-O-caffeoylquinic acid]", "values": [{"measurement": "TE, DPPH", "setting": "[1]", "value": "1.23 ± 0.07 ^a µmol Trolox Equivalents Per µmol Compound"}, {"measurement": "TE, ABTS", "setting": "[2]", "value": "1.22 ± 0.03 ^b µmol Trolox Equivalents Per µmol Compound"}, {"measurement": "TE, ORAC", "setting": "[3]", "value": "3.70 ± 0.34 ^a µmol Trolox Equivalents Per µmol Compound"}, {"measurement": "HOCl Scavenging Activity Inhibition (%)", "setting": "[4]; 3.125 µM", "value": "48.80 ± 5.62", "unit": "%"}, {"measurement": "HOCl Scavenging Activity Inhibition (%)", "setting": "[4]; 6.25 µM", "value": "51.23 ± 2.14", "unit": "%"}, {"measurement": "HOCl Scavenging Activity Inhibition (%)", "setting": "[4]; 12.5 µM", "value": "65.80 ± 4.06", "unit": "%"}, {"measurement": "IC50", "setting": "[4]; linear regression", "value": 4.61, "unit": "µM"}, {"measurement": "inhibition at 0.098 µM", "setting": "[5]; 0.098 µM, read-out: AR inhibitory Activity Inhibition (%)", "value": "23.7 ± 2.7", "unit": "%"}, {"measurement": "inhibition at 0.195 µM", "setting": "[5]; 0.195 µM, read-out: AR inhibitory Activity Inhibition (%)", "value": "44.4 ± 4.45", "unit": "%"}, {"measurement": "inhibition at 0.391 µM", "setting": "[5]; 0.391 µM, read-out: AR inhibitory Activity Inhibition (%)", "value": "65.9 ± 2.21", "unit": "%"}, {"measurement": "IC50", "setting": "[5]; rat lens AR, read-out: AR inhibitory Activity IC50", "value": 0.23, "unit": "µM"}, {"measurement": "K(upper/lower) Value", "setting": "[6]; EtOAc/H2O, 1:1, 30 mM ammonia", "value": 0.01}, {"measurement": "K(upper/lower) Value", "setting": "[6]; EtOAc/H2O, 1:1, 208 mM formic acid", "value": 12.24}, {"measurement": "K(upper/lower) Value", "setting": "[6]; EtOAc/n-BuOH/H2O, 2:3:5, 30 mM ammonia", "value": 0.13}, {"measurement": "K(upper/lower) Value", "setting": "[6]; EtOAc/n-BuOH/H2O, 2:3:5, 208 mM formic acid", "value": 45.95}, {"measurement": "K(upper/lower) Value", "setting": "[6]; EtOAc/n-BuOH/H2O, 3:2:5, 30 mM ammonia", "value": 0.05}, {"measurement": "K(upper/lower) Value", "setting": "[6]; EtOAc/n-BuOH/H2O, 3:2:5, 208 mM formic acid", "value": 41.13}, {"measurement": "K(upper/lower) Value", "setting": "[6]; EtOAc/n-BuOH/H2O, 4:1:5, 30 mM ammonia", "value": 0.01}, {"measurement": "K(upper/lower) Value", "setting": "[6]; EtOAc/n-BuOH/H2O, 4:1:5, 208 mM formic acid", "value": 22.17}]}
